The record followed here is US20220354791A1, “MESOPOROUS POLYMERIC PARTICULATE MATERIAL” (Aston University, priority 2019, published 2022).

This data set is described as follows: Dissolution testing of IBU-loaded mesoporous particles (USP I rotating basket). It counts as physicochemical. The conditions noted are these: after 120 mins; pH 3.0 medium + 0.25% SLS, 900 mL, 37° C., 100 rpm, 50 mg IBU in HPMC capsule. Here is the method:
Testing conditions: HCL-NaCl medium pH 3+0.25% SLS, 900 mL, USP apparatus 1 (rotating basket), 100 rpm, HPLC method (mobile phase: pH 3 phosphate buffer:acetonitrile (60:40); column: C18, 15 cm×4.6 mm, 5 μm; flow rate: 2 mL/min; injection volume: 20 μL; detector: UV, 254 nm).
Dissolution testing of IBU-loaded mesoporous particles as prepared in Example 4 was performed by using USP I apparatus (rotating basket, 100 rpm) in an Erweka DT 126 dissolution tester. Samples containing 50 mg of IBU were loaded into a HPMC hard-shell capsule and tested in 900 mL of pH 3.0 medium with 0.25% SLS at 37° C. The pH 3 medium was prepared by dissolving 2 g of sodium chloride and 2.5 g of SLS in 400 mL of deionised water, then adding 0.1 mL of hydrochloric acid 37%, and diluting with deionised water to 1000.0 mL. The concentrations of dissolved IBU were determined using a HPLC method with mobile phase of phosphate buffer pH 3: acetonitrile (60:40), C18 column (15 cm×4.6 mm, 5 μm), flow rate of 2 mL/min, injection volume of 20 μL, and UV detector at 254 nm in an Agilent 1200 HPLC system.

In the case of `CC(C)Cc1ccc(C(C)C(=O)O)cc1` (stereo not shown) [Ibuprofen raw material, Ibuprofen], the Ibuprofen dissolved was determined as 73.4%.
